Experimental data published in patent US20260042731A1, “(2,4-DICHLOROPHENOXY)ACETIC ACID ANALOGS” (CORTEVA AGRISCIENCE LLC, priority 2022, published 2026).
Read-outs that look alike come from different tables or passages of the source.

How the values were obtained:
[1] = test system: glyphosate resistant Conyza canadensis (L.) (ERICA), horseweed; assay: Postemergence herbicide evaluation, growth of Conyza canadensis (ERICA); type: in vivo; details: Erigeron canadensis, post-emergence, percent reduction in plant size relative to untreated control, read-out: Ave. ERICA; for pest or weed control at 280 g/ha: 280 g ae/ha; for pest or weed control at 560 g/ha: 560 g ae/ha
[2] = test system: Chenopodium album (CHEAL), common lambsquarters; assay: Postemergence herbicide evaluation, growth of Chenopodium album (CHEAL); type: in vivo; details: Chenopodium album, post-emergence, percent reduction in plant size relative to untreated control, read-out: Ave. CHEAL; for pest or weed control at 280 g/ha: 280 g ae/ha; for pest or weed control at 560 g/ha: 560 g ae/ha
[3] = Volatility of compounds measured by thermogravimetric analysis (TGA); type: physicochemical
[4] = test system: Amaranthus rudis (AMATA), tall water hemp; assay: Postemergence herbicide evaluation, growth of Amaranthus rudis (AMATA); type: in vivo; details: Amaranthus tuberculatus, post-emergence, percent reduction in plant size relative to untreated control, read-out: Ave. AMATA; for pest or weed control at 280 g/ha: 280 g ae/ha; for pest or weed control at 560 g/ha: 560 g ae/ha
[5] = test system: Abutilon theophrasti (ABUTH), velvetleaf; assay: Postemergence herbicide evaluation, growth of Abutilon theophrasti (ABUTH); type: in vivo; details: Abutilon theophrasti, post-emergence, percent reduction in plant size relative to untreated control, read-out: AVE. ABUTH; for pest or weed control at 280 g/ha: 280 g ae/ha; for pest or weed control at 560 g/ha: 560 g ae/ha
[6] = test system: weeds (ABUTH, AMATA, AMBEL, CHEAL, ERICA); assay: Postemergence herbicide evaluation, overall average % weed control across ABUTH, AMATA, AMBEL, CHEAL, ERICA; type: in vivo; details: post-emergence, average over the five weeds, read-out: Overall Ave % Weed Control; for pest or weed control at 280 g/ha: 280 g ae/ha; for pest or weed control at 560 g/ha: 560 g ae/ha
[7] = test system: Ambrosia artemisiifolia (AMBEL), common ragweed; assay: Postemergence herbicide evaluation, growth of Ambrosia artemisiifolia (AMBEL); type: in vivo; details: Ambrosia artemisiifolia, post-emergence, percent reduction in plant size relative to untreated control, read-out: AVE. AMBEL; for pest or weed control at 280 g/ha: 280 g ae/ha; for pest or weed control at 560 g/ha: 560 g ae/ha

| SMILES | pest or weed control at 280 g/ha ([1]; 168 h, 7 DAA) | pest or weed control at 560 g/ha ([1]; 168 h, 7 DAA) | pest or weed control at 280 g/ha ([1]; 336 h, 14 DAA) | pest or weed control at 560 g/ha ([1]; 336 h, 14 DAA) | pest or weed control at 280 g/ha ([1]; 504 h, 21 DAA) | pest or weed control at 560 g/ha ([1]; 504 h, 21 DAA) | pest or weed control at 280 g/ha ([2]; 168 h, 7 DAA) | pest or weed control at 560 g/ha ([2]; 168 h, 7 DAA) | pest or weed control at 280 g/ha ([2]; 336 h, 14 DAA) | pest or weed control at 560 g/ha ([2]; 336 h, 14 DAA) | pest or weed control at 280 g/ha ([2]; 504 h, 21 DAA) | pest or weed control at 560 g/ha ([2]; 504 h, 21 DAA) | pest or weed control at 280 g/ha ([4]; 168 h, 7 DAA) | pest or weed control at 560 g/ha ([4]; 168 h, 7 DAA) | pest or weed control at 280 g/ha ([4]; 336 h, 14 DAA) | pest or weed control at 560 g/ha ([4]; 336 h, 14 DAA) | pest or weed control at 280 g/ha ([4]; 504 h, 21 DAA) | pest or weed control at 560 g/ha ([4]; 504 h, 21 DAA) | pest or weed control at 280 g/ha ([5]; 168 h, 7 DAA) | pest or weed control at 560 g/ha ([5]; 168 h, 7 DAA) | other results |
| --- | --- | --- | --- | --- | --- | --- | --- | --- | --- | --- | --- | --- | --- | --- | --- | --- | --- | --- | --- | --- | --- |
| O=C(COc1ccc(Cl)cc1Cl)ON(Cc1ccccc1)Cc1ccccc1 [Compound A14, N, N-Dibenzyl-O-(2-(2,4-dichlorophenoxy)acetyl)hydroxylamine] | 43% | 40% | 50% | 50% | 43% | 40% | 60% | 58% | 68% | 63% | 70% | 63% | 63% | 55% | 50% | 48% | 53% | 43% | 38% | 28% | TGA Data (rate of weight loss, volatility) ([3]; 70° C.): 0.4 (70° C.) μg/min; pest or weed control at 280 g/ha ([5]; 336 h, 14 DAA): 23%; pest or weed control at 560 g/ha ([5]; 336 h, 14 DAA): 20%; pest or weed control at 280 g/ha ([5]; 504 h, 21 DAA): 13%; pest or weed control at 560 g/ha ([5]; 504 h, 21 DAA): 15%; pest or weed control at 280 g/ha ([6]; 168 h, 7 DAA): 51%; pest or weed control at 560 g/ha ([6]; 168 h, 7 DAA): 44%; pest or weed control at 280 g/ha ([6]; 336 h, 14 DAA): 51%; pest or weed control at 560 g/ha ([6]; 336 h, 14 DAA): 46%; pest or weed control at 280 g/ha ([6]; 504 h, 21 DAA): 47%; pest or weed control at 560 g/ha ([6]; 504 h, 21 DAA): 39%; pest or weed control at 280 g/ha ([7]; 168 h, 7 DAA): 50%; pest or weed control at 560 g/ha ([7]; 168 h, 7 DAA): 40%; pest or weed control at 280 g/ha ([7]; 336 h, 14 DAA): 63%; pest or weed control at 560 g/ha ([7]; 336 h, 14 DAA): 50%; pest or weed control at 280 g/ha ([7]; 504 h, 21 DAA): 58%; pest or weed control at 560 g/ha ([7]; 504 h, 21 DAA): 33% |
| O=C(COc1ccc(Cl)cc1Cl)ON1C(=O)c2ccccc2C1=O [Compound A15, 1,3-Dioxoisoindolin-2-yl 2-(2,4-dichlorophenoxy)acetate] | 68% | 65% | 78% | 88% | 88% | 95% | 68% | 70% | 73% | 70% | 80% | 75% | 73% | 73% | 82% | 78% | 84% | 83% | 78% | 85% | TGA Data (rate of weight loss, volatility) [3]: 0.1 µg/min; pest or weed control at 280 g/ha ([5]; 336 h, 14 DAA): 83%; pest or weed control at 560 g/ha ([5]; 336 h, 14 DAA): 95%; pest or weed control at 280 g/ha ([5]; 504 h, 21 DAA): 88%; pest or weed control at 560 g/ha ([5]; 504 h, 21 DAA): 99%; pest or weed control at 280 g/ha ([6]; 168 h, 7 DAA): 72%; pest or weed control at 560 g/ha ([6]; 168 h, 7 DAA): 74%; pest or weed control at 280 g/ha ([6]; 336 h, 14 DAA): 82%; pest or weed control at 560 g/ha ([6]; 336 h, 14 DAA): 84%; pest or weed control at 280 g/ha ([6]; 504 h, 21 DAA): 87%; pest or weed control at 560 g/ha ([6]; 504 h, 21 DAA): 89%; pest or weed control at 280 g/ha ([7]; 168 h, 7 DAA): 73%; pest or weed control at 560 g/ha ([7]; 168 h, 7 DAA): 75%; pest or weed control at 280 g/ha ([7]; 336 h, 14 DAA): 95%; pest or weed control at 560 g/ha ([7]; 336 h, 14 DAA): 88%; pest or weed control at 280 g/ha ([7]; 504 h, 21 DAA): 98%; pest or weed control at 560 g/ha ([7]; 504 h, 21 DAA): 95% |
